pIC50: −log10 of the molar value. Where a name gives a salt, the structure may show the parent alone.

For this assay, the target named is T1, BACE-2 (Homo sapiens, UniProt Q9Y5Z0).
T1 construct: Recombinant BACE-2 (extracellular domain, expressed in baculovirus and purified using standard methods); made in house
T1 sequence (Q9Y5Z0 63-473 limits assumed): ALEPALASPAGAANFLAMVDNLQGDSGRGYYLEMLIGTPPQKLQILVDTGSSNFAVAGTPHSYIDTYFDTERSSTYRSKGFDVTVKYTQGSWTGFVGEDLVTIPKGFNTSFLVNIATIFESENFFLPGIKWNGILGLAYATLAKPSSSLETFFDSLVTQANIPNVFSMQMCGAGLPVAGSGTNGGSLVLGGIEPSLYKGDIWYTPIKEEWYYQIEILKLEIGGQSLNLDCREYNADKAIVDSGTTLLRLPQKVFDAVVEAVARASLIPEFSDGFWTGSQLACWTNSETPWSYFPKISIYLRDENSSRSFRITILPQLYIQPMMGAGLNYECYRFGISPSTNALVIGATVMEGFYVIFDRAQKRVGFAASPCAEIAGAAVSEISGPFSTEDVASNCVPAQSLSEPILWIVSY
Kind of assay: assay for inhibition of BACE-2. The class given is biochemical.
The compound `Cc1cnc(C(=O)Nc2cccc(C3(C(F)F)COCC(N)=N3)c2)cn1` (stereo not shown) [Example 38] had a negative-log IC50 (pIC50) of 5.05.

Regarding `NC1=NC(c2cccc(NC(=O)c3ccc(C(F)(F)F)cn3)c2)(C(F)F)COC1` (stereo not shown) [Example 39], the pIC50 is 5.53.

The compound `NC1=NC(c2cccc(NC(=O)c3ncc(C(F)(F)F)cc3Cl)c2)(C(F)F)COC1` (stereo not shown) [Example 40] gave a pIC50 of 5.61.

`Cc1cc(Cl)cnc1C(=O)Nc1cccc(C2(C(F)F)COCC(N)=N2)c1` (stereo not shown) [Example 41] gave a pIC50 of 7.55.

In the case of `NC1=NC(c2cc(NC(=O)c3ccc(Br)cn3)ccc2F)(C(F)F)COC1` (stereo not shown) [Example 42, 5-Bromo-pyridine-2-carboxylic acid [3-(5-amino-3-difluoromethyl-3,6-dihydro-2H-[1,4]oxazin-3-yl)-4-fluoro-phenyl]-amide hydrochloride], the pIC50 was 7.28.

`NC1=NC(c2cc(NC(=O)c3ccc(Cl)cn3)ccc2F)(C(F)F)COC1` (stereo not shown) [Example 43] had a pIC50 of 7.55.

As to `Cc1cc(Cl)cnc1C(=O)Nc1ccc(F)c([C@]2(C(F)F)COCC(N)=N2)c1` [Example 44], the pIC50 is 8.30.

In the case of `Cc1cc(Br)cnc1C(=O)Nc1ccc(F)c([C@]2(C(F)F)COCC(N)=N2)c1` [Example 45], the pIC50 was 8.00.

Consider `NC1=N[C@@](c2cc(NC(=O)c3ncc(C(F)(F)F)cc3Cl)ccc2F)(C(F)F)COC1` [Example 46], for which the pIC50 is 6.89.

The compound `NC1=N[C@@](c2cc(NC(=O)c3ccc(C(F)(F)F)cn3)ccc2F)(C(F)F)COC1` [Example 47] had a pIC50 of 6.60.

Compound `Cc1cnc(C(=O)Nc2ccc(F)c([C@]3(C(F)F)COCC(N)=N3)c2)cn1` [Example 48] gave a negative logarithm of the IC50 (pIC50) of 6.29.

Compound `COc1ccc(C(=O)Nc2cccc([C@]3(C)CO[C@@](C)(C(F)(F)F)C(N)=N3)c2)nc1` [Example 67] gave a pIC50 of 7.57.

As for `C[C@@]1(c2cc(NC(=O)c3ccc(Br)cn3)ccc2F)CO[C@@](C)(C(F)(F)F)C(N)=N1` [Example 68], the pIC50 was 8.52.

For the compound `COc1ccc(C(=O)Nc2ccc(F)c([C@]3(C)CO[C@@](C)(C(F)(F)F)C(N)=N3)c2)nc1` [Example 69], the pIC50 is 9.00.

Regarding `C[C@@]1(c2cc(NC(=O)c3ncc(C#N)cn3)ccc2F)CO[C@@](C)(C(F)(F)F)C(N)=N1` [Example 70], the pIC50 was 8.40.

As for `C[C@@]1(c2cc(NC(=O)c3ncc(Br)cn3)ccc2F)CO[C@@](C)(C(F)(F)F)C(N)=N1` [Example 71, 5-Bromo-pyrimidine-2-carboxylic acid [3-((3R,6R)-5-amino-3,6-dimethyl-6-trifluoromethyl-3,6-dihydro-2H-[1,4]oxazin-3-yl)-4-fluoro-phenyl]-amide hydrochloride], the pIC50 was 8.52.

As for `C[C@@]1(c2cc(NC(=O)c3ccc(C#N)cn3)ccc2F)CO[C@@](C)(C(F)(F)F)C(N)=N1` [Example 73], the pIC50 was 7.57.

Regarding `COCCOc1cnc(C(=O)Nc2ccc(F)c([C@]3(C)CO[C@@](C)(C(F)(F)F)C(N)=N3)c2)cn1` [Example 74], the pIC50 was 6.29.

Turning to `CC1(C)OCC(c2cc(NC(=O)c3ccc(C#N)cn3)ccc2F)(C(F)F)N=C1N` (stereo not shown) [Example 79, 5-Cyano-pyridine-2-carboxylic acid[3-(5-amino-3-difluoromethyl-6,6-dimethyl-3,6-dihydro-2H-[1,4]oxazin-3-yl)-4-fluoro-phenyl]-amide], the pIC50 was 6.50.

As for `CC1(C)OCC(c2cc(NC(=O)c3ccc(Br)cn3)ccc2F)(C(F)F)N=C1N` (stereo not shown) [Example 80], the pIC50 is 7.19.

In the case of `NC1=NC(c2cc(NC(=O)c3ccc(Br)cn3)c(F)cc2F)(C(F)F)COC1` (stereo not shown) [Example 81], the pIC50 is 5.37.

`N#Cc1ccc(C(=O)Nc2cc(C3(C(F)F)COCC(N)=N3)c(F)cc2F)nc1` (stereo not shown) [Example 82] showed a pIC50 of 5.91.

As to `COc1cc(Br)cnc1C(=O)Nc1cc(C2(C(F)F)COCC(N)=N2)c(F)cc1F` (stereo not shown) [Example 83], the pIC50 was 5.23.

Compound `NC1=NC(c2cc(NC(=O)c3ncc(Br)cc3O)c(F)cc2F)(C(F)F)COC1` (stereo not shown) [Example 84] gave a pIC50 of 5.46.

`NC1=N[C@](CF)(c2cc(NC(=O)c3ccc(Cl)cn3)ccc2F)COC1` [Example 85, 5-Chloro-pyridine-2-carboxylic acid [3-((R)-5-amino-3-fluoromethyl-3,6-dihydro-2H-[1,4]oxazin-3-yl)-4-fluoro-phenyl]-amide hydrochloride] had a pIC50 of 8.10.

Compound `NC1=NC(CF)(c2cc(NC(=O)c3ccc(Br)cn3)ccc2F)COC1` (stereo not shown) [Example 86] had a pIC50 of 7.49.

Take `NC1=NC(CF)(c2cc(NC(=O)c3ccc(Cl)cn3)ccc2F)COC1` (stereo not shown) [Example 87]: the negative logarithm of the IC50 (pIC50) is 7.60.

The compound `NC1=NC(CF)(c2cc(NC(=O)c3ncc(Cl)cc3Cl)ccc2F)COC1` (stereo not shown) [Example 88] gave a negative logarithm of the IC50 (pIC50) of 7.92.

On to `N#Cc1ccc(C(=O)Nc2ccc(F)c(C3(CF)COCC(N)=N3)c2)nc1` (stereo not shown) [Example 89], for which the pIC50 is 6.82.

Turning to `Cc1cc(Br)cnc1C(=O)Nc1ccc(F)c(C2(CF)COCC(N)=N2)c1` (stereo not shown) [Example 90], the pIC50 is 7.96.

With `Cc1cc(Br)cnc1C(=O)Nc1ccc(F)c([C@]2(CF)COCC(N)=N2)c1` [Example 91], the pIC50 was 8.22.

For `Cc1cc(Cl)cnc1C(=O)Nc1ccc(F)c([C@]2(CF)COCC(N)=N2)c1` [Example 92], the pIC50 is 9.40.

`Cl.[2H]c1nc(C(=O)Nc2ccc(F)c([C@]3(CF)COCC(N)=N3)c2)c(C([2H])([2H])[2H])c([2H])c1Cl` [Example 93] showed a pIC50 of 8.85.

In turn, `NC1=N[C@](CF)(c2cc(NC(=O)c3ncc(Br)cc3O)ccc2F)COC1` [Example 94] gave a pIC50 of 7.48.

In the case of `COc1cc(Br)cnc1C(=O)Nc1ccc(F)c([C@]2(CF)COCC(N)=N2)c1` [Example 95], the pIC50 is 7.28.

`NC1=N[C@@](c2cc(NC(=O)c3ccc(Br)cn3)ccc2F)(C(F)F)CCOC1` [Example 97] had a pIC50 of 7.96.

`N#Cc1ccc(C(=O)Nc2ccc(F)c(C3(C(F)(F)F)CCOCC(N)=N3)c2)nc1` (stereo not shown) [Example 98, 5-Cyano-pyridine-2-carboxylic acid [3-(3-amino-5-trifluoromethyl-2,5,6,7-tetrahydro-[1,4]oxazepin-5-yl)-4-fluoro-phenyl]-amide hydrochloride]: the pIC50 was 6.84.

`NC1=NC(c2cc(NC(=O)c3ccc(Br)cn3)ccc2F)(C(F)(F)F)CCOC1` (stereo not shown) [Example 99] showed a pIC50 of 7.43.

`CC1(c2cc(NC(=O)c3ccc(Cl)cn3)ccc2F)N=C(N)COCC1(F)F` (stereo not shown) [Example 100, N-(3-(3-amino-6,6-difluoro-5-methyl-2,5,6,7-tetrahydro-1,4-oxazepin-5-yl)-4-fluorophenyl)-5-chloropicolinamide] had a pIC50 of 7.77.

`CC1(c2cc(NC(=O)c3ccc(Br)cn3)ccc2F)N=C(N)COCC1(F)F` (stereo not shown) [Example 101] gave a negative logarithm of the IC50 (pIC50) of 7.59.

Take `NC1=NC(c2cccc(NC(=O)c3cc(Br)co3)c2)(C(F)F)COC1` (stereo not shown) [Example 102]: the negative-log IC50 (pIC50) was 6.62.

Turning to `NC1=NC(c2cccc(NC(=O)c3ccc(O)nn3)c2)(C(F)F)COC1` (stereo not shown) [Example 103], the pIC50 was less than 5.00.

The compound `Cc1nc(C(=O)Nc2cccc(C3(C(F)F)COCC(N)=N3)c2)co1` (stereo not shown) [Example 104] gave a pIC50 of 6.51.

In the case of `CCc1nc(C(=O)Nc2cccc(C3(C(F)F)COCC(N)=N3)c2)co1` (stereo not shown) [Example 105], the negative logarithm of the IC50 (pIC50) was 5.99.

With `Cc1nc(C(=O)Nc2cccc(C3(C(F)F)COCC(N)=N3)c2)c(C)o1` (stereo not shown) [Example 106], the pIC50 was 5.98.

The compound `COc1cc(Br)cnc1C(=O)Nc1cccc(C2(C(F)F)COCC(N)=N2)c1` (stereo not shown) [Example 107] gave a pIC50 of 6.88.

`NC1=NC(c2cccc(NC(=O)c3ncc(Br)cc3O)c2)(C(F)F)COC1` (stereo not shown) [Example 108]: the pIC50 was 7.62.

`COCCOc1cnc(C(=O)Nc2cccc(C3(C(F)F)COCC(N)=N3)c2)cn1` (stereo not shown) [Example 109] had a pIC50 of less than 5.00.

Consider `NC1=NC(c2cccc(NC(=O)c3cnc(C(F)F)cn3)c2)(C(F)F)COC1` (stereo not shown) [Example 110], for which the pIC50 was 5.45.

`NC1=N[C@@](c2cc(NC(=O)c3ncc(Cl)cc3Cl)ccc2F)(C(F)F)COC1` [Example 111]: the pIC50 is 8.15.

`N#Cc1ccc(C(=O)Nc2ccc(F)c([C@]3(C(F)F)COCC(N)=N3)c2)nc1` [Example 112, 5-Cyano-pyridine-2-carboxylic acid [3-((R)-5-amino-3-difluoromethyl-3,6-dihydro-2H-[1,4]oxazin-3-yl)-4-fluoro-phenyl]-amide hydrochloride] had a pIC50 of 7.01.

On to `NC1=N[C@@](c2cc(NC(=O)c3ncc(F)cc3F)ccc2F)(C(F)F)COC1` [Example 113], for which the pIC50 is 7.54.

For the compound `Cc1c(C(=O)Nc2ccc(F)c([C@]3(C(F)F)COCC(N)=N3)c2)oc2ccc(Br)cc12` [Example 114], the negative-log IC50 (pIC50) is 6.94.

`Cl.[2H]c1nc(C(=O)Nc2ccc(F)c([C@]3(C(F)F)COCC(N)=N3)c2)c(C([2H])([2H])[2H])c([2H])c1Cl` [Example 115] had a negative-log IC50 (pIC50) of 8.52.

`Cl.[2H]c1nc(C(=O)Nc2ccc(F)c([C@]3(C(F)F)COCC(N)=N3)c2)c(C([2H])([2H])[2H])c([2H])c1Br` [Example 116] showed a pIC50 of 8.05.

On to `NC1=N[C@@](c2cc(NC(=O)c3ncc(Br)cc3Cl)ccc2F)(C(F)F)COC1` [Example 117], for which the pIC50 is 7.89.

On to `NC1=N[C@@](c2cc(NC(=O)c3ccc(Br)cn3)ccc2F)(C(F)F)COC1` [Example 118], for which the pIC50 is 7.96.

As for `NC1=N[C@@](c2cc(NC(=O)c3ncc(Br)cc3O)ccc2F)(C(F)F)COC1` [Example 119], the pIC50 was 7.85.

By pIC50 is commonly meant −log10 of the IC50, conventionally taken in molar units. A low value points to a high IC50.

The values above are taken from patent US20140128385A1 (NOVARTIS AG, priority 2011, published 2014).
